According to BindingDB's records for doi:10.1124/jpet.103.062794 (Neurosearch, 2004):
Several values for one entry are separate records, joined by “and”; a condition that tells them apart may be missing. Identical values can stand only once.

Assays:
[1] = molecular target: Glutamate receptor ionotropic, kainate 2 (Homo sapiens, UniProt Q13002)
[2] = molecular target: Glutamate receptor ionotropic, kainate 1 (Homo sapiens, UniProt P39086)
Glutamate receptor ionotropic, kainate 1, sequence (P39086 whole entry): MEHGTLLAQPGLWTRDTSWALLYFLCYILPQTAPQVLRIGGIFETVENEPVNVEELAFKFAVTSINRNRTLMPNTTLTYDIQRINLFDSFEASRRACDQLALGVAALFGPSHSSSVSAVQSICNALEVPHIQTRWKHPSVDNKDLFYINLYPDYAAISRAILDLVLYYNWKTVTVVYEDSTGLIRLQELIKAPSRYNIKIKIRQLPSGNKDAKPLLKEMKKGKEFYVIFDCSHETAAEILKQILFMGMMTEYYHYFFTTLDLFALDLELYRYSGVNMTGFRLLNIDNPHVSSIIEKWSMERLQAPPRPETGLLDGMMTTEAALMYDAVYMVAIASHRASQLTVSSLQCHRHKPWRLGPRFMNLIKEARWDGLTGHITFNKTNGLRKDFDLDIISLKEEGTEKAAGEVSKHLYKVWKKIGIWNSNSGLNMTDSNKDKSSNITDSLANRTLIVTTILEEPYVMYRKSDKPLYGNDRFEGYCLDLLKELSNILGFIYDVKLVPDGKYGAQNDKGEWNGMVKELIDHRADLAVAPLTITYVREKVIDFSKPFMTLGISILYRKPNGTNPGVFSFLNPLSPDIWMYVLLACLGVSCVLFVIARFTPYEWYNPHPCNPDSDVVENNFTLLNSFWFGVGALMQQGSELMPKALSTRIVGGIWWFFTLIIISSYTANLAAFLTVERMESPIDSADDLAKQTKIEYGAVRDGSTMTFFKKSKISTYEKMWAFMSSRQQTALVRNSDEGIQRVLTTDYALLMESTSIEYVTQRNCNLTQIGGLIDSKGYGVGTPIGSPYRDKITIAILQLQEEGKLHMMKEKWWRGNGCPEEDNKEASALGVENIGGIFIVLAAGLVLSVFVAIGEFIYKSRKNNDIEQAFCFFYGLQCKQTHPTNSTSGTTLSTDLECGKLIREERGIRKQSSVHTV

Glutamate receptor ionotropic, kainate 2, sequence (Q13002 whole entry): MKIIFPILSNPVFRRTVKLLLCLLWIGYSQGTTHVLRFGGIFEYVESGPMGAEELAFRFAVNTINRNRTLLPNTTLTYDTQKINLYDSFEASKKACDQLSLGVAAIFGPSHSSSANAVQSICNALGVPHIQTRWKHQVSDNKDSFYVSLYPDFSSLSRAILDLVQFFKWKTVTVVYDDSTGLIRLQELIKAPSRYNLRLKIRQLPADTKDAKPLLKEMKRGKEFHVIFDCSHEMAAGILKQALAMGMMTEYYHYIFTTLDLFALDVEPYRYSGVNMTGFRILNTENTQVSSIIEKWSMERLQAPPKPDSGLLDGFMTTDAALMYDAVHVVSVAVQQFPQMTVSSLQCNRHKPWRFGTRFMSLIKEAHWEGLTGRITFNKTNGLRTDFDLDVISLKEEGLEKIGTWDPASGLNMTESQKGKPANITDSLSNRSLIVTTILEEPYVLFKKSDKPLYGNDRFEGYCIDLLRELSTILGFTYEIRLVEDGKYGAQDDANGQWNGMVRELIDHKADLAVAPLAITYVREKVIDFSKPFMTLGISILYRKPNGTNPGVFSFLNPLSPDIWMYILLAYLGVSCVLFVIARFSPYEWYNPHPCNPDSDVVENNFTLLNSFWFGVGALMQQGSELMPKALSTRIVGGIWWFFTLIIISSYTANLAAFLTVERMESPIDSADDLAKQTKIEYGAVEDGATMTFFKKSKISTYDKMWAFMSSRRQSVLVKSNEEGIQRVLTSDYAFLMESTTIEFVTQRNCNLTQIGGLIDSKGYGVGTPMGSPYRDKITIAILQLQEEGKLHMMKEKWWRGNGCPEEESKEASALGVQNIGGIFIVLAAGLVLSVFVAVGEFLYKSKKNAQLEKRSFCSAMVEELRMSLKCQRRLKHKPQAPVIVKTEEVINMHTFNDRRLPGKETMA

Row | Ki [1] [µM] | Ki [2] | Compound
1 | > 30 | > 10 µM and 1.6 µM | O=C(Nc1cc(NC(=O)c2ccccc2)c(C(=O)O)cc1C(=O)O)c1ccccc1 [NS3763]
2 | > 10 | – | CN1CCc2c(-c3ccc(S(=O)(=O)N(C)C)cc3)cc3c(c2C1)NC(=O)/C3=N\OC(CCO)C(=O)O (stereo not drawn) [SPD 502]
